Counter-ions that a name gives are not always drawn.
Columns and labels:
[1] = system: Malassezia furfur 14521; experiment: Antifungal activity on M. furfur (resazurin viability, MIC and ΣFIC); type: cell-based; conditions: M. furfur 14521, YPD broth, 30° C., 72 hours, resazurin colour
Procedure: The samples as given in Table 1 were subjected to their anti fungal efficacy on M. furfur as described hereinafter.
The test organism used in the assay is Malassezia furfur 14521. The M. furfur were revived from glycerol stock in YPD agar plates (yeast extract peptone dextrose media) containing 1% corn oil. The composition of YPD is yeast extract:10 g/litre, dextrose 20 g/litre, Peptone 20 g/litre and agarose 0.15%. The plates were incubated at 30° C. for 72 hours for forming fungal colonies. A suspension culture of M. furfur was made using the colonies from plates in YPD broth. The optical density of the suspension culture was adjusted to 0.6 using spectrophotometer. This suspension was diluted in the ratio of 1:10 using YPD broth and 100 μl of this culture was added into each well of 96 well test plate. A stock solution of 40× strength of piroctone olamine was prepared for each of the concentrations tested eg for 0.0.001% test concentration of piroctone olamine a stock of 0.04% was prepared in DMSO (dimethyl sulphoxide). 5 μl of piroctone olamine was added to 100 μl of M. furfur culture. A stock solution of 4× strength of itaconic acid or sodium benzoate was prepared for each of the concentrations tested e.g. for 0.0.001% test concentration of itaconic acid or sodium benzote a stock of 0.004% was prepared in YPD broth. 50 μl of itaconic acid or sodium benzoate was added to 100 μl of M. furfur culture. In wells containing only one test ingredient, (itaconic acid or sodium benzoate only) 50 μl of test ingredient was added to 100 μl of fungal culture and then made up the volume to 200 μl with YPD broth. In wells containing only piroctone olamine 5 μl of piroctone olamine was added to 100 μl of fungal culture and then made up the volume to 200 μl with YPD broth. […] The anti-fungal efficacy of the ingredient or combination of ingredients is calculated based on the colour development. […]
The combinations of test ingredients with synergistic anti-fungal benefits were evaluated using ΣFIC method. The ΣFIC of the combinations were calculated using the following formula: […]

[2] = cited from earlier work

Compound: C=C(CC(=O)OC)C(=O)OC [Dimethyl itaconate]
- Minimum inhibitory concentration (MIC) [1]: 0.5 wt %

Compound: Cc1cc(CC(C)CC(C)(C)C)n(O)c(=O)c1 (centres unmarked) [Piroctone olamine, 1-Hydroxy-4-methyl-6-(2,4,4-trimethylpentyl)-2-(1H)pyridinone,2-aminoethanol salt]
- Minimum inhibitory concentration (MIC) [1]: 0.002 wt %
- solubility in 10% ethanol in water ([2]; 10% ethanol in water): soluble
- solubility in solution containing surfactants in water or in 1%-10% ethanol ([2]; solution containing surfactants in water or in 1%-10% ethanol): soluble

Compound: O=C([O-])c1ccccc1.[Na+] [Sodium benzoate]
- Minimum inhibitory concentration (MIC) [1]: 0.5 wt %

From US12138334B2, “Antidandruff composition” (Conopco, Inc., priority 2019, dated 2024)
